Data published in patent US20210403485A1, “PYRAZOLOPYRIMIDINE DERIVATIVE AS SELECTIVE TRK INHIBITOR” (SHANDONG LUYE PHARMACEUTICAL CO., LTD., priority 2018, published 2021).

Experiments:
[1] = tested on: Ba/F3 ETV6-NTRK3-G623R cells; experiment: Efficacy test in animals: subcutaneous xenograft, intragastric administration; format: in vivo, nude mice; conditions: 60 mg/kg qd
Method: Cells in the logarithmic growth phase were collected and resuspended in serum-free medium to a cell concentration of 2-4×10^7 cells/mL. An equal volume of matrigel was added to the cell suspension to achieve a final cell concentration of 1-2×10^7 cells/mL. 0.2 mL of tumor cell suspension was subcutaneously inoculated at the scapula of each nude mouse with the inoculation amount of 2-4×10^6 cells/mouse to prepare the animal models.

Ba/F3 SLC34A2-ROS1-WT = target: T1, Ba/F3 SLC34A2-ROS1-WT (Homo sapiens, UniProt P08922); experiment: Inhibitory activity against cell proliferation (CellTiter-Glo, 72 hours); format: cell-based; conditions: read-out: Half maximal inhibitory concentration IC50 of cells, Ba/F3 SLC34A2-ROS1-WT
T1 construct: fused on or other part: N-terminal part of SLC34A2 as fusion partner (part of the key); O95436 (Sodium-dependent phosphate transport protein 2B)
T1 sequence (P08922 whole entry, stated change not applied, the tested form may be a part): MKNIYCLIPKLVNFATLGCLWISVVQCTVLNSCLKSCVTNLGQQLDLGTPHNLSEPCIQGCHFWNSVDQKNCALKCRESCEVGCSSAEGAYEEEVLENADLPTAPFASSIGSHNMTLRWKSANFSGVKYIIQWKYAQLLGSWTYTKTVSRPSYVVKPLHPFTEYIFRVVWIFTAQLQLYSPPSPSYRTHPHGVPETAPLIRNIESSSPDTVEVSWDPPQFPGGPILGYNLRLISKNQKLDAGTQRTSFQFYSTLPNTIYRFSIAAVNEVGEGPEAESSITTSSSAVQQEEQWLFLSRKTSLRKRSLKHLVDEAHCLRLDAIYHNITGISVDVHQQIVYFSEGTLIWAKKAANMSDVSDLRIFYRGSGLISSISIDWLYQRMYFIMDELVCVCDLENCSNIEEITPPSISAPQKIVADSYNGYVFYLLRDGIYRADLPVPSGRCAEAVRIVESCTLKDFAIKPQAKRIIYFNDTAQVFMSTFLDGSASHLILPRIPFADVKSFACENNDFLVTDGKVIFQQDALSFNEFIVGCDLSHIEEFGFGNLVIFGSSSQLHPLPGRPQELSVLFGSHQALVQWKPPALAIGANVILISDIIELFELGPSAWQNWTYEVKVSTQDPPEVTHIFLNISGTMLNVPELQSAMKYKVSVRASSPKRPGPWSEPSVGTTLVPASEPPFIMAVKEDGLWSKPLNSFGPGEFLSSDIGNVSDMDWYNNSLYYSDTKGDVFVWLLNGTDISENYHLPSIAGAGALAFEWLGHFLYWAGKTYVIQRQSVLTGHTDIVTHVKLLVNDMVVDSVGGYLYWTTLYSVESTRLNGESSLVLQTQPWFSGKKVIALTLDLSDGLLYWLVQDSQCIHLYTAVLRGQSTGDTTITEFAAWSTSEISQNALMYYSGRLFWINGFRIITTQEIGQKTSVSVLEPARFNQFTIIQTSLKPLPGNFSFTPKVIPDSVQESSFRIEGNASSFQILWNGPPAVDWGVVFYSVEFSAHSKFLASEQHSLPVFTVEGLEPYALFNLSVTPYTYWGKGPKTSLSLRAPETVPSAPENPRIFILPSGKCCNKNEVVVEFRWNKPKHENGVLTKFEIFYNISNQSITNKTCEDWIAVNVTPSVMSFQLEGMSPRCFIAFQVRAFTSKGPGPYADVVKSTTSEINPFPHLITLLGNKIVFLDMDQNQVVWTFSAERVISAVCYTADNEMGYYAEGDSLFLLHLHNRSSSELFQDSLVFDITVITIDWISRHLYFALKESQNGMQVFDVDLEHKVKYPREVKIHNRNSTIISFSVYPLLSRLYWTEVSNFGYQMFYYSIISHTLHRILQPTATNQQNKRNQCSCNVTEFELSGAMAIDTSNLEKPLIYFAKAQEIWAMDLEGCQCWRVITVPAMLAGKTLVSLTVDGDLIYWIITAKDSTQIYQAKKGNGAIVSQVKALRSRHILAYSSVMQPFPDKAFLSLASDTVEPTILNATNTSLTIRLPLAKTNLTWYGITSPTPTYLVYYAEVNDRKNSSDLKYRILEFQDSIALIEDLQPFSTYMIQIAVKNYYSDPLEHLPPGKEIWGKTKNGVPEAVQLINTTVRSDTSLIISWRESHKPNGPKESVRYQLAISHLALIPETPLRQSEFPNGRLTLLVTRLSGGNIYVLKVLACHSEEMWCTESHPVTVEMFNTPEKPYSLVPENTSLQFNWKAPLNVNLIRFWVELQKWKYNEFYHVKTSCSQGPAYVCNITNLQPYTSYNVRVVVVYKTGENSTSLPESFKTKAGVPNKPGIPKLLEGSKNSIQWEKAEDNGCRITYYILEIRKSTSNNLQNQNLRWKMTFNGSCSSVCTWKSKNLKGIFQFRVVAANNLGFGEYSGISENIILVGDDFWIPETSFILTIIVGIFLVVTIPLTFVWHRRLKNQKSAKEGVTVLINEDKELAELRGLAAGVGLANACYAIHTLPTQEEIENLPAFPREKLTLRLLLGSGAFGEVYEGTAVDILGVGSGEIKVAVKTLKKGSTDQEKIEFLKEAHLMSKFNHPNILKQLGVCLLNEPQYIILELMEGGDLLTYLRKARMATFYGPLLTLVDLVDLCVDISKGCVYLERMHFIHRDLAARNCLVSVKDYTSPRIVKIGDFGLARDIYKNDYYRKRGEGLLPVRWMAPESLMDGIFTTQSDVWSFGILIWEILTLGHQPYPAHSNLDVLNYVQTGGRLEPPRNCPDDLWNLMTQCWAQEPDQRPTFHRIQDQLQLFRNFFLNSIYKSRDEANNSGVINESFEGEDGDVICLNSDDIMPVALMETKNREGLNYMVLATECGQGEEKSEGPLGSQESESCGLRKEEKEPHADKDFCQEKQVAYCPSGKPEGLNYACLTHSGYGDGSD
In short: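 Log-phase Ba/F3 cells (trypan blue viability above 90%) were treated in triplicate with a 9-point, 3-fold compound series. ATP-dependent luminescence was read after CellTiter-Glo addition, and IC50 values came from nonlinear sigmoidal dose-response fits.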

BaF3 ETV6-NTRK3-G623R = target: T2, BaF3 ETV6-NTRK3-G623R (Homo sapiens, UniProt Q16288, G623R, cells depend on it); experiment: as above; format: cell-based; conditions: read-out: Half maximal inhibitory concentration IC50 of cells, BaF3 ETV6-NTRK3-G623R
T2 construct: fused on or other part: N-terminal part of ETV6 (TEL) as fusion partner (part of the key); P41212 (Transcription factor ETV6)
T2 sequence (Q16288 whole entry G623R, the tested form may be a part): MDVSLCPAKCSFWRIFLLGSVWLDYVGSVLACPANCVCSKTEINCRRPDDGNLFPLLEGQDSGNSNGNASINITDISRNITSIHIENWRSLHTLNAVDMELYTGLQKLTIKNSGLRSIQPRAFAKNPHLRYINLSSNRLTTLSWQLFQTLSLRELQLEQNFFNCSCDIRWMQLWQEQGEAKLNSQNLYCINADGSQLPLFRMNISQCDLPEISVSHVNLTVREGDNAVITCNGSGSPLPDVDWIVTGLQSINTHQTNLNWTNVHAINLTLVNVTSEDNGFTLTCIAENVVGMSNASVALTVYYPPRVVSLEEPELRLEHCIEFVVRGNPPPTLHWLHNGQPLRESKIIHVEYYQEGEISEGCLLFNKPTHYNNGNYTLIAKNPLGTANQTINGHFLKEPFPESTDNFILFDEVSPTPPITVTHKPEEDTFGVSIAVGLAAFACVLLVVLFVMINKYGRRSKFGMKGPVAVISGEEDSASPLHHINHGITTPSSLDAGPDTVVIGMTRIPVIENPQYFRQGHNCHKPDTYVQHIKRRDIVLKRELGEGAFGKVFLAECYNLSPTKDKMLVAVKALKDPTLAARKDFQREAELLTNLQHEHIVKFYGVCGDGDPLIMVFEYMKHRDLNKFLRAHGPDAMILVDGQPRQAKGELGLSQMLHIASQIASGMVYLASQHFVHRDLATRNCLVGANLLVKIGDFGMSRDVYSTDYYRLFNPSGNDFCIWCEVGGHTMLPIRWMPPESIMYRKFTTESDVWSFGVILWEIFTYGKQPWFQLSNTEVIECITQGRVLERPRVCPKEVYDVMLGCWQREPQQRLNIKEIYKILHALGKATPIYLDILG
In short: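 Ba/F3 stable fusion lines were seeded at 5000 cells/well (viability >90% by trypan blue) and allowed to settle overnight at 37 °C, 5% CO2. Compounds were then added as a 9-point, 3-fold series from a 10-fold working solution with a top concentration of 10 μM, in triplicate. IC50 values came from nonlinear sigmoidal fits of luminescence.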

[2] = Animal body weight and general observations, Ba/F3 ETV6-NTRK3-G623R tumor-bearing nude mice; conditions: 60 mg/kg qd
Method: The mice in groups were intragastrically administrated on the next day, and the animal body weight and the long and short diameters of the tumor were measured once every other day.

ALK = target: T3, ALK (Homo sapiens, UniProt Q9UM73); experiment: Kinase inhibitory activity (33P-ATP, filtration-binding method, Reaction Biology Corp.); format: biochemical; conditions: read-out: Half maximal inhibitory concentration IC50 for kinases, ALK
T3 construct: purchased Reaction Biology Corp
T3 sequence (Q9UM73 19-1620): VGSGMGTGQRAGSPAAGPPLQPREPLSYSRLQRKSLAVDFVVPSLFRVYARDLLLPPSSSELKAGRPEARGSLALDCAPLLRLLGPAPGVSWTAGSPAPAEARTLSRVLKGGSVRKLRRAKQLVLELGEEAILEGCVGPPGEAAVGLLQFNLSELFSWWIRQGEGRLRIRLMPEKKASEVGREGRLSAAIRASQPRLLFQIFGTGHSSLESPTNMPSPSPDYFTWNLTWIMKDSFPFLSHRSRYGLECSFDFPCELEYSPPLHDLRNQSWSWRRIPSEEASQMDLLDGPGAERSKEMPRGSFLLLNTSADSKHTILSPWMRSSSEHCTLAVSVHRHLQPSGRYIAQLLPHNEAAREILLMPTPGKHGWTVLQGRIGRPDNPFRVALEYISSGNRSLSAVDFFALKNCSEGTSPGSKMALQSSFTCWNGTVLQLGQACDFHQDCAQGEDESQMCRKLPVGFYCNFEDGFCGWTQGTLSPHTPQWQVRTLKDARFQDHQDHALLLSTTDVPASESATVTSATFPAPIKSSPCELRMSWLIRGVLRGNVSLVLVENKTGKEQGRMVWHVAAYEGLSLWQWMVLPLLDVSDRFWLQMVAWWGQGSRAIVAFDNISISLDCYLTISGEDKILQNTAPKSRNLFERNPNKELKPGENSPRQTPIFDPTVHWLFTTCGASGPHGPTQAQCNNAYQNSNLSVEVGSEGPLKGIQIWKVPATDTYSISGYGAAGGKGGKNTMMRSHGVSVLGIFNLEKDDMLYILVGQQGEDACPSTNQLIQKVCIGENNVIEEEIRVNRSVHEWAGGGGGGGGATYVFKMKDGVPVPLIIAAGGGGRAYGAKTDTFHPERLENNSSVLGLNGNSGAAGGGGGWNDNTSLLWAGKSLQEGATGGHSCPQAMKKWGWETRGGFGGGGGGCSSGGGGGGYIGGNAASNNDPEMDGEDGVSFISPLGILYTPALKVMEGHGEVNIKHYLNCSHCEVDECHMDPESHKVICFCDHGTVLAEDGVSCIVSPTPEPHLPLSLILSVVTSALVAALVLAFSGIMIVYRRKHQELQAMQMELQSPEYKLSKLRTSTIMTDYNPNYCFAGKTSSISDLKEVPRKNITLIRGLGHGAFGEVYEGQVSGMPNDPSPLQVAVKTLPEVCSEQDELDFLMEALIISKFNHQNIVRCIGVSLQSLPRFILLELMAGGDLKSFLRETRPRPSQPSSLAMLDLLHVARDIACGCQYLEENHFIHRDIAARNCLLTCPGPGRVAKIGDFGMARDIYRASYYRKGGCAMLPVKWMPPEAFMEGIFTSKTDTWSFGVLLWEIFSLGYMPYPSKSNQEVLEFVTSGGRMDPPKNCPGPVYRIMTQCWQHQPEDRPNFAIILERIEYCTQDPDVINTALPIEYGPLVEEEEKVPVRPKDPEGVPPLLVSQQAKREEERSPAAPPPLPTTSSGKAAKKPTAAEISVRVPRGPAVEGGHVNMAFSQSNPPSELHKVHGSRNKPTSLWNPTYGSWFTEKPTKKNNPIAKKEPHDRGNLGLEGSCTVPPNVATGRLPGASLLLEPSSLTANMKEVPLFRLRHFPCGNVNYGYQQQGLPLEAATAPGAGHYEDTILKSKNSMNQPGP
In short: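 Radiometric kinase assay: enzyme-compound mixture preincubated 20 minutes at room temperature, then reaction started with ^33P-ATP and run 120 minutes at room temperature. Filtration-binding readout. Activity expressed relative to DMSO control; IC50 from fitted dose-response curves.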

GI50 (Ba/F3 SLC34A2-ROS1-WT): > 1000 nM
GI50 (BaF3 ETV6-NTRK3-G623R): 394 nM
IC50 (ALK): > 1000 nM
SMILES: O=C(Nc1cnn2ccc(N3CCC[C@@H]3c3cc(F)ccc3F)nc12)N1CC[C@H](O)C1 [LOXO-101, larotrectinib, reference compound]
Tumor volume ([1]; Day 0): 200.39 ± 31.65 mm^3
Tumor volume ([1]; Day 3): 552.34 ± 219.25 mm^3
Tumor volume ([1]; Day 5): 1025.59 ± 347.93 mm^3
Tumor volume ([1]; Day 7): 1349.08 ± 541.06 mm^3
Tumor volume ([1]; Day 9): 1822.21 ± 755.31 mm^3
Tumor volume ([1]; Day 11): 2375.84 ± 852.18 mm^3
TGI (tumor growth inhibition rate) ([1]; day of dissection): 31.65%
Tumor inhibition rate (by tumor weight) ([1]; end of the test): 25.27%
Tumor weight ([1]; end of the test): 1.28 ± 0.62 g
Rate of change in body weight (%) of day 11 to day 0 [2]: 6.8%
Body weight ([2]; Day 0): 23.9 ± 1.4 g
Body weight ([2]; Day 3): 24.2 ± 1.8 g
Body weight ([2]; Day 5): 24.1 ± 2.0 g
Body weight ([2]; Day 7): 25.0 ± 2.2 g
Body weight ([2]; Day 9): 25.3 ± 2.2 g
Body weight ([2]; Day 11): 25.6 ± 2.4 g
